Measurements published in patent US8575114B2, “SGLT-2 inhibitors, methods of making them, and uses thereof” (Albany Molecular Research, Inc., priority 2010, dated 2013).

Key:
hSGLT-2 = hSGLT-2 (Homo sapiens (Human), UniProt P31639); assay: [14C]AMG uptake inhibition in CHO-K1/hSGLT-2 cells; assay type: cell-based; details: 4 μM [14C]AMG, 3-hr incubation at 37° C., read-out: SGLT2, IC50
Description: The inhibitory activity of the compounds of this invention against the SGLT-1 or SGLT-2 transporters can be determined by the following assay. […] CHO-K1 cells transfected with pcDNA3.1 (Invitrogen Corp., Carlsbad, Calif.) containing either the full-length hSGLT-1 or hSGLT-2 using Lipofectamine 2000 (Invitrogen Corp., Carlsbad, Calif.) were selected for stable incorporation of the construct by resistance to the selective pressure of Geneticin (450 μg/ml; Invitrogen Corp., Carlsbad, Calif.). Monoclonal cell lines isolated by minimal dilution were screened for uptake activity of radiolabled methyl α-D-glucopyranoside ([^14C]AMG), a non-metabolizable glucose analogue, and a single clone for each transporter was selected for maximal transporter activity to be used for evaluating the inhibitory activity of the compounds of this invention. In brief, 35,000 cells (CHO-K1/hSGLT-1 or CHO-K1/hSGLT-2) were plated per well of a black tissue culture treated 96-well plate in Ham's F12 media supplemented with 10% heat inactivated FBS and allowed to attached overnight at 37° C. and 5% CO2. Compounds were serially diluted 3-fold in DMSO generating a nine (9) data point dose response curve for each compound. Two replicates were performed per determination. […] Following a 3-hr incubation at 37° C. and 5% CO2, the uptake reaction was stopped by washing the cells three (3) times with ice-cold D-PBS and then lysing the cells with 50 μl of Microscint-20. […] Data were fit to an empirical four-parameter model to determine the inhibitor concentration at half-maximal response (IC50). The assay window was established by control wells incubated with [^14C]AMG in the presence or absence of sodium. A dose response curve for phlorizin was generated on every plate as a positive control.

hSGLT-1 = hSGLT-1 (Homo sapiens (Human), UniProt P13866); assay: [14C]AMG uptake inhibition in CHO-K1/hSGLT-1 cells; assay type: cell-based; details: 4 μM [14C]AMG, 3-hr incubation at 37° C., read-out: SGLT-1, IC50
Source text: The inhibitory activity of the compounds of this invention against the SGLT-1 or SGLT-2 transporters can be determined by the following assay. The cDNAs for the human genes of SGLT-1 (SLC5A1—solute carrier family 5 sodium/glucose cotransporter member 1; Accession #NM_000343.1) or SGLT-2 (SLC5A2—member 2; Accession #NM_003041.2) were synthesized (OriGene Technologies, Inc.) and sub-cloned into the mammalian expression vector, pcDNA3.1 (Invitrogen Corp., Carlsbad, Calif.) using standard molecular biology techniques. CHO-K1 cells transfected with pcDNA3.1 (Invitrogen Corp., Carlsbad, Calif.) containing either the full-length hSGLT-1 or hSGLT-2 using Lipofectamine 2000 (Invitrogen Corp., Carlsbad, Calif.) were selected for stable incorporation of the construct by resistance to the selective pressure of Geneticin (450 μg/ml; Invitrogen Corp., Carlsbad, Calif.). Monoclonal cell lines isolated by minimal dilution were screened for uptake activity of radiolabled methyl α-D-glucopyranoside ([^14C]AMG), a non-metabolizable glucose analogue, and a single clone for each transporter was selected for maximal transporter activity to be used for evaluating the inhibitory activity of the compounds of this invention. In brief, 35,000 cells (CHO-K1/hSGLT-1 or CHO-K1/hSGLT-2) were plated per well of a black tissue culture treated 96-well plate in Ham's F12 media supplemented with 10% heat inactivated FBS and allowed to attached overnight at 37° C. and 5% CO2. Compounds were serially diluted 3-fold in DMSO generating a nine (9) data point dose response curve for each compound. Two replicates were performed per determination. The compounds were then diluted into Uptake Buffer (10 mM Hepes, 5 mM Tris, 137 mM NaCl, 5.4 mM KCl, 2.8 mM CaCl2, and 1.2 mM MgSO4, pH 7.4) with a final DMSO concentration of 0.9% (v/v). After the overnight incubation and prior to compound treatment, the cells were washed twice with Sodium Free Buffer in which the sodium chloride was replaced with 137 mM Choline Chloride, and then incubated with 4 μM [^14C]AMG in Uptake Buffer in the presence or absence of diluted compound. Following a 3-hr incubation at 37° C. and 5% CO2, the uptake reaction was stopped by washing the cells three (3) times with ice-cold D-PBS and then lysing the cells with 50 μl of Microscint-20. After 15-min, the amount of radioactivity that was incorporated into the cells was quantified using a Microbeta reader. Data were fit to an empirical four-parameter model to determine the inhibitor concentration at half-maximal response (IC50). The assay window was established by control wells incubated with [^14C]AMG in the presence or absence of sodium. A dose response curve for phlorizin was generated on every plate as a positive control.

Chain of hSGLT-2 (P31639 whole entry): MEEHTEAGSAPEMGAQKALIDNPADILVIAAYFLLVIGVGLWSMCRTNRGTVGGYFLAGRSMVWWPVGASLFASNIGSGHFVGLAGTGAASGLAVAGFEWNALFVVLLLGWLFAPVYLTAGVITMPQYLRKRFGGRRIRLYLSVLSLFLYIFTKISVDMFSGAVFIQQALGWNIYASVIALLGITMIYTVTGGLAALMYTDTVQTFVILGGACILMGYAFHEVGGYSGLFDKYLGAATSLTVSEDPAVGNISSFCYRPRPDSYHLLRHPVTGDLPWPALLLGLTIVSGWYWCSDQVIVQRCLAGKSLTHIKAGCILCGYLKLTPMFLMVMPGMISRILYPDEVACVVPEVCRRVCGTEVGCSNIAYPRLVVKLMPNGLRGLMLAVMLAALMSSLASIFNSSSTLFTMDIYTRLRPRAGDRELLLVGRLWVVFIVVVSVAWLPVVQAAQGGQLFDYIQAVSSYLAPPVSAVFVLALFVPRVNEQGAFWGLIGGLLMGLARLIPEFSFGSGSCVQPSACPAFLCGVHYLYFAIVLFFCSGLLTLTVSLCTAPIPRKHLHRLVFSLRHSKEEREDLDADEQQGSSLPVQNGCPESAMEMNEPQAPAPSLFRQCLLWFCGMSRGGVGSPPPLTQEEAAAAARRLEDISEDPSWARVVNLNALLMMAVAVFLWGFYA
Chain of hSGLT-1 (P13866 whole entry): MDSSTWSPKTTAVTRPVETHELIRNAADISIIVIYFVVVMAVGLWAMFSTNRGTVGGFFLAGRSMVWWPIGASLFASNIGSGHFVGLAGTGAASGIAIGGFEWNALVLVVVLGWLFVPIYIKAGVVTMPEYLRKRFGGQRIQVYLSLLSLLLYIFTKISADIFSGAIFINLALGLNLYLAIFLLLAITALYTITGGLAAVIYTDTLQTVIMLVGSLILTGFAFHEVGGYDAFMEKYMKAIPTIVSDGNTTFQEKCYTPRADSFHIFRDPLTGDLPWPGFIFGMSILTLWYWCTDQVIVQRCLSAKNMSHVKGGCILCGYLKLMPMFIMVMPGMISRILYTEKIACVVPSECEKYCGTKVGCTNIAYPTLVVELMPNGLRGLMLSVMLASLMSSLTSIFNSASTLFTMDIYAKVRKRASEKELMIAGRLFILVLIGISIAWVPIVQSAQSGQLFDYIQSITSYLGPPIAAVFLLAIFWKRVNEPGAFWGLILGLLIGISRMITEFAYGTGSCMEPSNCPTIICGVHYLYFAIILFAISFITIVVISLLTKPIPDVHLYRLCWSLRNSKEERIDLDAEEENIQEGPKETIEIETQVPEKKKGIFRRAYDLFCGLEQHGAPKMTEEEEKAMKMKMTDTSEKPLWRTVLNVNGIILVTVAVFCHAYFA

Question: Which IC50 (hSGLT-2) does the source give for O=C1CN(c2ccc(Cc3cc([C@@H]4O[C@H](CO)[C@@H](O)[C@H](O)[C@H]4O)ccc3Cl)cc2)C(=O)N1C(c1ccccc1)(c1ccccc1)c1ccccc1 [III-1, 1-(4-(2-chloro-5-((2S,3R,4R,5S,6R)-3,4,5-trihydroxy-6-(hydroxymethyl)tetrahydro-2H-pyran-2-yl)benzyl)phenyl)-3-tritylimidazolidine-2,4-dione] here?
Answer: 0.329 µM

Question: What about the IC50 (hSGLT-1) of the same compound?
Answer: 6.25 µM

Question: O=c1n(Cc2cc([C@@H]3O[C@H](CO)[C@@H](O)[C@H](O)[C@H]3O)ccc2Cl)nc2ccc(Br)cn12 [I-10, 6-bromo-2-(2-chloro-5-((2S,3R,4R,5S,6R)-3,4,5-trihydroxy-6-(hydroxymethyl)tetrahydro-2H-pyran-2-yl)benzyl)-[1,2,4]triazolo[4,3-a]pyridin-3(2H)-one] was tested. Which IC50 (hSGLT-2) did it give?
Answer: 0.0948 µM

Question: What about the IC50 (hSGLT-1) of the same compound?
Answer: 45.6 µM

Question: For O=c1n(Cc2cc([C@@H]3O[C@H](CO)[C@@H](O)[C@H](O)[C@H]3O)ccc2Cl)nc2cc(C(F)(F)F)ccn12 [I-3, 2-(2-chloro-5-((2S,3R,4R,5S,6R)-3,4,5-trihydroxy-6-(hydroxymethyl)tetrahydro-2H-pyran-2-yl)benzyl)-7-(trifluoromethyl)-[1,2,4]triazolo[4,3-a]pyridin-3(2H)-one], which IC50 (hSGLT-2) is on record?
Answer: 0.273 µM

Question: What about the IC50 (hSGLT-1) of the same compound?
Answer: 49.5 µM
